≈ marks a conversion by molar mass, not a printed value.
Legend:
[1] = tested on: Staphylococcus aureus ATCC 29213 (DRCC 035, S); experiment: MIC by broth microdilution, S. aureus DRCC 035 (S); format: cell-based; details: ATCC29213, Mueller Hinton Broth, overnight 37° C., strain DRCC 035 (ATCC 29213), read-out: Antimicrobial Screening (MIC) Staphylococcus aureus 035 S
Protocol: (§1) Minimum Inhibiton Concentrations (MICs) were determined by broth microdilution technique as per the guidelines prescribed om the fifth edition of Approved Standards, NCCLS document M7-A5 Vol 20-No 2, 2000 Villinova, Pa.
(§2) Initial stock solution of the test compound was prepared in DMSO. Subsequent two fold dilutions were carried out in sterile Mueller Hinton Broth (Difco) (MHB).
(§3) Frozen cultures stocks were inoculated into 50 ml sterile MHB in 250 ml Erlyn Meyer flasks.
(§4) Composition of MHB is as follows:
(§5) Flasks were incubated for 4 to 5 h at 35° C. on a rotary shaker at 150 rpm. Inoculum was prepared by diluting the culture in sterile MHB to obtain a turbidity of 0.5 McFarland standard. This corresponds to 1–2×10^8 CFU/ml. The stock was further diluted in sterile broth to obtain 1–2×10^6 CFU/ml. 50 μl of the above diluted inoculum was added from 1–10 wells. The plates were incubated overnight at 37° C.

[2] = tested on: Enterococcus faecalis ATCC 29212 (DRCC 034, S); experiment: MIC by broth microdilution, Enterococcus DRCC 034 (S); format: cell-based; details: ATCC29212, Mueller Hinton Broth, overnight 37° C., strain DRCC 034 (E. faecalis ATCC 29212), read-out: Antimicrobial Screening (MIC) Enterococcus sp 034 S
Protocol: as §1, §2, §3, §4, §5

[3] = tested on: Escherichia coli ATCC 25922 (DRCC 018, S); experiment: MIC by broth microdilution, E coli DRCC 018 (S); format: cell-based; details: ATCC25922, Mueller Hinton Broth, overnight 37° C., strain DRCC 018 (ATCC 25922), read-out: Antimicrobial Screening (MIC) E coli 18 S
Protocol: as §1, §2, §3, §4, §5

[4] = tested on: Staphylococcus aureus ATCC 33591 (DRCC 019, MRSA); experiment: MIC by broth microdilution, S. aureus DRCC 019 (MRSA); format: cell-based; details: Mueller Hinton Broth, overnight 37° C., strain DRCC 019 (ATCC 33591), read-out: Antimicrobial Screening (MIC) Staphylococcus aureus 019 MRSA
Protocol: as §1, §2, §3, §4, §5

[5] = tested on: Enterococcus faecium NCTC 12202 (DRCC 154, R); experiment: MIC by broth microdilution, Enterococcus DRCC 154 (R); format: cell-based; details: NCTC12202, Mueller Hinton Broth, overnight 37° C., strain DRCC 154 (E. faecium NCTC 12202), read-out: Antimicrobial Screening (MIC) Enterococcus sp 154 R
Protocol: as §1, §2, §3, §4, §5

[6] = tested on: Enterococcus faecalis NCTC 12201 (DRCC 153, R); experiment: MIC by broth microdilution, Enterococcus DRCC 153 (R); format: cell-based; details: NCTC12201, Mueller Hinton Broth, overnight 37° C., strain DRCC 153 (E. faecalis NCTC 12201), read-out: Antimicrobial Screening (MIC) Enterococcus sp 153 R
Protocol: as §1, §2, §3, §4, §5

[7] = tested on: Staphylococcus aureus ATCC 49951 (DRCC 213, Smith S); experiment: MIC by broth microdilution, S. aureus DRCC 213 (Smith S); format: cell-based; details: ATCC49951, Mueller Hinton Broth, overnight 37° C., strain DRCC 213 (ATCC 49951), read-out: Antimicrobial Screening (MIC) Staphylococcus aureus 213 Smith S
Protocol: as §1, §2, §3, §4, §5

Row | SMILES | MIC [1] [µg/mL] | MIC [2] [µg/mL] | MIC [3] [µg/mL] | MIC [4] [µg/mL] | MIC [5] [µg/mL] | MIC [6] [µg/mL] | MIC [7] [µg/mL] | melting point [°C]
1 | CC(=O)NC[C@H]1CN(c2ccc(N3CCOC3=O)c(F)c2)C(=O)O1 [Example 40] | 8 (≈ 23.7 µM) | 16 (≈ 47.4 µM) | 32 (≈ 94.9 µM) | 8 (≈ 23.7 µM) | 8 (≈ 23.7 µM) | 8 (≈ 23.7 µM) | 4 (≈ 11.9 µM) | 
2 | CC(=O)NC[C@H]1CN(c2ccc(N3CCOC3=O)cc2)C(=O)O1 [Example 62] | 4 (≈ 12.5 µM) |  | 32 (≈ 100 µM) | 2 (≈ 6.26 µM) | 8 (≈ 25.1 µM) | 8 (≈ 25.1 µM) | 1 (≈ 3.13 µM) | 
3 | CC(=S)NC[C@H]1CN(c2cc(F)c(N3CCOC3=O)c(F)c2)C(=O)O1 [Example 76] | 4 (≈ 10.8 µM) | 4 (≈ 10.8 µM) | > 32 | 2 (≈ 5.39 µM) | 4 (≈ 10.8 µM) | 4 (≈ 10.8 µM) | 2 (≈ 5.39 µM) | 
4 | CC(=S)NC[C@H]1CN(c2cc(F)c(N3CCOC3=O)c(F)c2)C(=O)O1 [Example 77] |  |  |  |  |  |  |  | 168
5 | CC(=S)NC[C@H]1CN(c2ccc(N3CCN(C)C3=O)c(F)c2)C(=O)O1 [Example 79] | 4 (≈ 10.9 µM) | 4 (≈ 10.9 µM) | 32 (≈ 87.3 µM) | 2 (≈ 5.46 µM) | 8 (≈ 21.8 µM) | 8 (≈ 21.8 µM) | 2 (≈ 5.46 µM) | 
6 | COC(=S)NC[C@H]1CN(c2ccc(N3CCOC3=O)c(F)c2)C(=O)O1 [Example 88] | 2 (≈ 5.41 µM) | 2 (≈ 5.41 µM) | > 32 | 1 (≈ 2.71 µM) | 2 (≈ 5.41 µM) | 2 (≈ 5.41 µM) | 1 (≈ 2.71 µM) | 
7 | CCOC(=S)NC[C@H]1CN(c2ccc(N3CCOC3=O)c(F)c2)C(=O)O1 [Example 89] | 4 (≈ 10.4 µM) | 8 (≈ 20.9 µM) | > 32 | 4 (≈ 10.4 µM) | 8 (≈ 20.9 µM) | 8 (≈ 20.9 µM) | 4 (≈ 10.4 µM) | 
8 | COC(=S)NC[C@H]1CN(c2ccc(N3CCOC3=S)c(F)c2)C(=O)O1 [Example 92] |  |  |  |  |  |  |  | 197
9 | COC(=S)NC[C@H]1CN(c2cc(F)c(N3CCOC3=O)c(F)c2)C(=O)O1 [Example 99] | 2 (≈ 5.16 µM) | 2 (≈ 5.16 µM) | > 32 | 2 (≈ 5.16 µM) | 2 (≈ 5.16 µM) | 2 (≈ 5.16 µM) | 2 (≈ 5.16 µM) | 
10 | COC(=S)NC[C@H]1CN(c2ccc(N3CCOC3=O)cc2)C(=O)O1 [Example 100] | 0.5 (≈ 1.42 µM) | 1 (≈ 2.85 µM) | 32 (≈ 91.1 µM) | 0.5 (≈ 1.42 µM) | 1 (≈ 2.85 µM) | 1 (≈ 2.85 µM) | 0.5 (≈ 1.42 µM) | 
11 | CC(C)OC(=S)NC[C@H]1CN(c2ccc(N3CCOC3=O)cc2)C(=O)O1 [Example 107] | 4 (≈ 10.5 µM) | 8 (≈ 21.1 µM) | 32 (≈ 84.3 µM) | 2 (≈ 5.27 µM) | 4 (≈ 10.5 µM) | 4 (≈ 10.5 µM) | 4 (≈ 10.5 µM) | 
12 | COC(=S)NC[C@H]1CN(c2ccc(N3CC(=O)N(C)C3)c(F)c2)C(=O)O1 [Example 110] | 0.5 (≈ 1.31 µM) | 1 (≈ 2.61 µM) | 32 (≈ 83.7 µM) | 0.5 (≈ 1.31 µM) | 1 (≈ 2.61 µM) | 1 (≈ 2.61 µM) | 0.5 (≈ 1.31 µM) | 
13 | COC(=S)NC[C@H]1CN(c2ccc(N3CCN(C)C3=O)c(F)c2)C(=O)O1 [Example 113] | 4 (≈ 10.5 µM) | 4 (≈ 10.5 µM) | 32 (≈ 83.7 µM) | 2 (≈ 5.23 µM) | 8 (≈ 20.9 µM) | 4 (≈ 10.5 µM) | 4 (≈ 10.5 µM) | 

The next lines start with the values.

Row | MIC [1] [µg/mL] | MIC [2] [µg/mL] | MIC [3] [µg/mL] | MIC [4] [µg/mL] | MIC [5] [µg/mL] | MIC [6] [µg/mL] | MIC [7] [µg/mL] | melting point [°C] | SMILES
14 |  |  |  |  |  |  |  | 160 | COC(=S)NC[C@H]1CN(c2ccc(N3CCN(Cc4ccccc4)C3=O)cc2)C(=O)O1 [Example 115]
15 |  |  |  |  |  |  |  | 174 | COC(=S)NC[C@H]1CN(c2ccc(N3CCN(Cc4ccccc4)C3=O)c(F)c2)C(=O)O1 [Example 116]
16 |  |  |  |  |  |  |  | 195 | COC(=S)NC[C@H]1CN(c2ccc(N3CCN(c4ccccc4)C3=O)c(F)c2)C(=O)O1 [Example 117]
17 |  |  |  |  |  |  |  | 192 | COC(=S)NC[C@H]1CN(c2ccc(N3CC(=O)N(Cc4ccccc4)C3)c(F)c2)C(=O)O1 [Example 123]
18 | 0.5 (≈ 1.25 µM) | 0.5 (≈ 1.25 µM) |  | 0.25 (≈ 0.627 µM) | 0.5 (≈ 1.25 µM) | 0.25 (≈ 0.627 µM) | 0.25 (≈ 0.627 µM) |  | COC(=S)NC[C@H]1CN(c2ccc(N3CC(=O)N(CO)C3)c(F)c2)C(=O)O1 [Example 124]
19 | 0.5 (≈ 1.25 µM) | 0.5 (≈ 1.25 µM) |  | 0.25 (≈ 0.627 µM) | 0.5 (≈ 1.25 µM) | 0.25 (≈ 0.627 µM) | 0.25 (≈ 0.627 µM) |  | COC(=S)NC[C@H]1CN(c2ccc(N3CC(=S)N(C)C3)c(F)c2)C(=O)O1 [Example 125]
20 |  |  |  |  |  |  |  | 223 | COC(=S)NC[C@H]1CN(c2ccc(N3CC(=S)N(C)C3)c(F)c2)C(=O)O1 [Example 126]
21 | 1 (≈ 2.42 µM) | 1 (≈ 2.42 µM) |  | 0.5 (≈ 1.21 µM) | 1 (≈ 2.42 µM) | 1 (≈ 2.42 µM) | 1 (≈ 2.42 µM) |  | COCN1CN(c2ccc(N3C[C@H](CNC(=S)OC)OC3=O)cc2F)CC1=O [Example 127]
